Test results reported in US4189607A, “Anilionotropone derivatives” (priority 1979, dated 1980).
Counter-ions that a name gives are not always drawn.

Key:
rat paw edema = assay: Anti-inflammatory activity, carrageenin rat paw edema (Winter et al); assay type: in vivo, Male Wistar strain rats; conditions: p.o., four hours after injection of carrageenin
Protocol: Experiment 1: Anti-inflammatory activity
Anti-inflammatory activity was evaluated by the method of rat paw edema (Winter et al, J. Pharmacol. Exp. Ther., 141, 369 (1963) ). Six male Wistar strain rats were used in each group and the volume of each paw was measured four hours after injection of carrageenin.

acetic acid writhing = assay: Analgesic activity, acetic acid writhing test (Koster et al); assay type: in vivo, Male ddY strain mice; conditions: p.o.
Description: Experiment 3: Analgesic activity
Male ddY strain mice in groups of ten each were used for evaluation of analgesic activity by the acetic acid writhing test (Koster et al, Federation Proc., 18, 412 (1959). The results are shown in Tables 3 and 4.

gastric lesions = assay: Gastric ulcerogenicity (gastric lesions); assay type: in vivo, Male Wistar strain rats; conditions: p.o., 18 hours fasting prior to autopsy
Description: Experiment 4: Gastric ulcerogenicity […] The gastric lesions induced was expressed as incidence (number of rats with gastric lesions/number of the test rats) and lesion index (sum of areas damaged).

[1] = Analgesic activity, method of Randall-Selitto with slight modification; assay type: in vivo, Male Wistar strain rats; conditions: 25 mg/kg orally, vs Cpd. 3 at 100 mg/kg
Protocol: Experiment 2: Analgesic activity
Male Wistar strain rats in groups of six each were used for the evaluation of analgesic activity by the method of Randall-Selitto (Arch. Intern. Pharmacodyn., 111, 409 (1957) ) with slight modification. In a graph where the load was plotted on the ordinate and the time was plotted on the abscissa, the curve obtained when Cpd. 1 was orally administered in a dose of 25 mg/kg was substantially in agreement with the curve obtained when Cpd. 3 was orally administered in a dose of 100 mg/kg. […] 1 was administered in a dose of 50 mg/kg and the Cpd 3 was administered in a dose of 200 mg/kg.

[2] = Table 6, 100 + 200 mg/kg, 200 mg/kg

Structure (SMILES)	Inhibition (%) (rat paw edema; Table 1, 25 mg/kg)	Inhibition (%) (rat paw edema; Table 1, 50 mg/kg)	Inhibition (%) (rat paw edema; Table 1, 100 mg/kg)	Inhibition (%) (rat paw edema; Table 2, 100 mg/kg)	Inhibition (%) (acetic acid writhing; Table 3, 200 mg/kg)	Inhibition (%) (acetic acid writhing; Table 4, 100 mg/kg)	Lesion index (sum of areas damaged) (gastric lesions; Table 5, 25 + 50 mg/kg) [mm^2]	Lesion index (sum of areas damaged) (gastric lesions; Table 5, 50 + 100 mg/kg) [mm^2]	Lesion index (sum of areas damaged) (gastric lesions; Table 5, 100 + 200 mg/kg) [mm^2]	Lesion index (sum of areas damaged) (gastric lesions; Table 6, 100 + 200 mg/kg) [mm^2]	Inhibition (%) (rat paw edema; Table 2, 100 mg/kg, 100 mg/kg)	Incidence (number of rats with gastric lesions/number of the test rats) (gastric lesions; [2])	Lesion index (sum of areas damaged) (gastric lesions; [2]) [mm^2]	Load-time curve compared with Cpd. 3 [1]	Inhibition (%) (acetic acid writhing; Table 3, 100 mg/kg)	Incidence (number of rats with gastric lesions/number of the test rats) (gastric lesions; Table 5, 25 + 50 mg/kg)	Incidence (number of rats with gastric lesions/number of the test rats) (gastric lesions; Table 5, 50 + 100 mg/kg)	Incidence (number of rats with gastric lesions/number of the test rats) (gastric lesions; Table 5, 100 + 200 mg/kg)
CCCCC1C(=O)N(c2ccccc2)N(c2ccccc2)C1=O [Cpd. 3, phenylbutazone, reference compound]	22.4	34.7	54.5	32.5	18.5	10.7	0.02 ± 0.014	1.43 ± 0.43	6.82 ± 1.40	7.70 ±3.23								
CC(C(=O)O)c1cccc(Nc2cccccc2=O)c1 (centres unmarked) [Cpd. 2, 2-[m-(2-troponylamino)phenyl]propionic acid]						31.2					43.0	0/6	0					
CC(C(=O)O)c1cccc(Nc2cccccc2=O)c1 (centres unmarked) [Cpd. 2-Ca salt, calcium 2-[m-(2-troponylamino)phenyl]propionate]						31.2					43.2	2/6	0.12 ± 0.10					
CC(C(=O)O)c1ccc(Nc2cccccc2=O)cc1 (centres unmarked) [Cpd. 1, 2-[p-(2-troponylamino)phenyl]propionic acid]	56.8	50.9	61.0				0	0.02 ± 0.017	0.52 ± 0.17					substantially in agreement with the curve obtained when Cpd. 3 was orally administered in a dose of 100 mg/kg	54.8	0/6	1/6	4/6
